Test results published in patent US20250034216A1, “STEREOSELECTIVE COVALENT LIGANDS FOR ONCOGENIC AND IMMUNOLOGICAL PROTEINS” (The Scripps Research Institute, priority 2021, published 2025).

Columns and labels:
Assay in all cases: IA-DTB cysteine engagement
Type in all cases: binding
Details in all cases: 22Rv1 cells, 20 μM probe, 1 h, relative to DMSO
PRXL2A_C88 = molecular target: T1, PRXL2A_C88 (Homo sapiens, UniProt Q9BRX8)
T1 construct: endogenous in cells; host or cells: 22Rv1
T1 sequence (Q9BRX8 1-229): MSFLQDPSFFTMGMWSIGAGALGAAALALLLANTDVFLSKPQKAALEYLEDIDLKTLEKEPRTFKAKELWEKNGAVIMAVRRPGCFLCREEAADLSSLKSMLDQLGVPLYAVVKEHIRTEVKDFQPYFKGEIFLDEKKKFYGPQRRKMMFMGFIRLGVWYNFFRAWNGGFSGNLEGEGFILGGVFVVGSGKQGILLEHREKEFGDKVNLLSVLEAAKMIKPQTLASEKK
In short: (§1)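 Probe-exposed cells were lysed, IA-DTB-labeled, trypsinized and streptavidin-enriched. Multiplexed TMT quantitation gave engagement ratios versus DMSO, with non-tryptic peptides excluded and intensities normalized to median summed signal.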

MGST3_C56 = molecular target: T2, MGST3_C56 (Homo sapiens, UniProt O14880)
T2 construct: endogenous in cells; host or cells: 22Rv1
T2 sequence (O14880 whole entry): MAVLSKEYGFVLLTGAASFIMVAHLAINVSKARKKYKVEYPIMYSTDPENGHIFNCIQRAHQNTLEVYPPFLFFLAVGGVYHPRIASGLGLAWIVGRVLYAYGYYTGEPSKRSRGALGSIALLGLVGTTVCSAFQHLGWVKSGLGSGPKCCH
In short: as §1

CHUK_C406 = molecular target: T3, CHUK_C406 (Homo sapiens, UniProt O15111)
T3 construct: endogenous in cells; host or cells: 22Rv1
T3 sequence (O15111 1-745): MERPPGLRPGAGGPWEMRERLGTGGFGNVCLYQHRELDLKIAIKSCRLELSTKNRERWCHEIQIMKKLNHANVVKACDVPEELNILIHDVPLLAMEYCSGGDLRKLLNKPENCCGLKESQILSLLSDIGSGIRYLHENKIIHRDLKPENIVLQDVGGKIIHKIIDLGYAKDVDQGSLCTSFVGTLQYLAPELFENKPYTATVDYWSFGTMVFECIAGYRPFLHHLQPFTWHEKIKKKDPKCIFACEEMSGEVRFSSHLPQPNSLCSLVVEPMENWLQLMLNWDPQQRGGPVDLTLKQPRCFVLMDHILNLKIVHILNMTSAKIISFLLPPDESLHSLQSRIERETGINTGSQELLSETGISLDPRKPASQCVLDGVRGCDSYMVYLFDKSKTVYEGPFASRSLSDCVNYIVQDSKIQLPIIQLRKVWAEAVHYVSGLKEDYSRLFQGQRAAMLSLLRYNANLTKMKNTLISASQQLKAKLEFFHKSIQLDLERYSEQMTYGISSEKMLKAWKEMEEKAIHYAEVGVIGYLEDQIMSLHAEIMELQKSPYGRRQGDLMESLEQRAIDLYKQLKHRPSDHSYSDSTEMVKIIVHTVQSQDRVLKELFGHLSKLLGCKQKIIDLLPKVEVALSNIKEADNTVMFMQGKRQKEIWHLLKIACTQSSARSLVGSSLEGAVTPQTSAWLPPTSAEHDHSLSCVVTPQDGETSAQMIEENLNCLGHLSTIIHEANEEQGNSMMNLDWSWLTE
In short: as §1

| % engagement PRXL2A_C88 (PRXL2A_C88) | % engagement MGST3_C56 (MGST3_C56) | % engagement CHUK_C406 (CHUK_C406) | Compound |
| --- | --- | --- | --- |
| 96.25% | 58.75% | 51.5% | C=CC(=O)N1C[C@@H](c2ccc(Br)cc2)[C@H]1C(=O)Nc1cccc2cccnc12 [MY-1A, (2S,3R)-1-acryloyl-3-(4-bromophenyl)-N-(quinolin-8-yl)azetidine-2-carboxamide] |
| 97.25% | 58% | 28.5% | C=CC(=O)N1C[C@H](c2ccc(Br)cc2)[C@@H]1C(=O)Nc1cccc2cccnc12 [MY-1B, (2R,3S)-1-acryloyl-3-(4-bromophenyl)-N-(quinolin-8-yl)azetidine-2-carboxamide] |
| 97.25% | 73.5% | 97% | C=CC(=O)N1C[C@H](c2ccc(Br)cc2)[C@H]1C(=O)Nc1cccc2cccnc12 [MY-3B, (2S,3S)-1-acryloyl-3-(4-bromophenyl)-N-(quinolin-8-yl)azetidine-2-carboxamide] |
| 95% | 63.5% | 0% | C=CC(=O)N1C[C@H](c2ccc(Br)cc2)[C@H]1C(=O)Nc1cccc2cccnc12 [MY-3A, (2S,3S)-1-acryloyl-3-(4-bromophenyl)-N-(quinolin-8-yl)azetidine-2-carboxamide] |
